The supplement of paper PMC10011410

Key:
[1] = test system: U-2 OS; test: cell painting activity score (Mahalanobis distance from DMSO wells); higher = stronger morphological phenotype; settings: 24 h
Protocol: (§1)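 Cell painting in U-2 OS cells (384-well, about 1,500 cells per well), compound exposure 24 h, usually six 2-fold concentrations from 20 to 0.625 uM (some compounds higher or lower). Relative cell count is the cell number per well relative to DMSO wells. Activity score is the Mahalanobis distance of the morphological profile from DMSO control wells. Mean of four technical replicate plates.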

[2] = test system: U-2 OS; test: relative cell count vs DMSO (cell painting) (fraction of DMSO control); higher = more cells remaining (less cytotoxic); settings: 24 h
Protocol: as §1

[3] = test system: U-2 OS; test: AUC of culture confluence over time (live-cell imaging) (AUC (confluence % x time)); higher = more confluent culture (less growth inhibition)
Protocol: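 Live-cell Incucyte imaging of U-2 OS cells in F-12K medium. Compounds were tested mostly at 5, 10 and 20 uM, and cells were imaged every 4 h for up to 60 h. Value is the area under the curve of phase-contrast confluence over time.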

| SMILES | cell painting activity score ([1]; 0.625 µM) | cell painting activity score ([1]; 1.25 µM) | cell painting activity score ([1]; 2.5 µM) | cell painting activity score ([1]; 5 µM) | cell painting activity score ([1]; 10 µM) | cell painting activity score ([1]; 20 µM) | relative cell count ([2]; 0.625 µM) | relative cell count ([2]; 1.25 µM) | relative cell count ([2]; 2.5 µM) | relative cell count ([2]; 5 µM) | relative cell count ([2]; 10 µM) | relative cell count ([2]; 20 µM) | AUC of culture confluence over time ([3]; 5 µM) | AUC of culture confluence over time ([3]; 10 µM) | AUC of culture confluence over time ([3]; 20 µM) |
| --- | --- | --- | --- | --- | --- | --- | --- | --- | --- | --- | --- | --- | --- | --- | --- |
| COc1ccc2cc1Oc1ccc(cc1)C[C@H]1c3cc(c(OC)cc3CCN1C)Oc1c(OC)c(OC)cc3c1[C@H](C2)N(C)CC3 | 5.28 | 5.79 | 5.97 | 16.8 | 28.3 | 14.8 | 1.08 | 1.06 | 1.04 | 1.07 | 0.973 | 0.322 |  |  |  |
| CCN(CC)Cc1ccc2cc(COC(=O)Nc3ccc(C(=O)NO)cc3)ccc2c1.Cl | 16.1 | 14.9 | 15 | 15.6 | 16 | 16.9 | 0.781 | 0.654 | 0.491 | 0.424 | 0.403 | 0.373 | 16.5 | 20 | 18.5 |
| O=c1cc(N2CCOCC2)oc2c(-c3ccccc3)cccc12 | 3.52 | 4.47 | 4.5 | 5.36 | 6.81 | 9.26 | 1.02 | 0.978 | 0.971 | 0.962 | 1 | 0.948 | 42.2 | 40.7 | 31.5 |
| O=C1C=C(Cl)C(=O)c2ccccc21 | 7.9 | 18.1 | 19.4 | 17.9 | 22.2 | 25.4 | 0.745 | 0.492 | 0.216 | 0.29 | 0.169 | 0.267 |  |  |  |
| O=C1Cc2c([nH]c3ccc(Br)cc23)-c2ccccc2N1 | 7.76 | 10.8 | 12.7 | 13.7 | 14.7 | 13.6 | 0.977 | 0.959 | 0.911 | 0.835 | 0.557 | 0.164 |  |  |  |
| CS(=O)(=O)OCCCCOS(C)(=O)=O | 3.32 | 4.51 | 5.59 | 7.16 | 6.02 | 10 | 0.959 | 0.863 | 0.85 | 0.682 | 0.679 | 0.295 | 49.5 | 47.2 | 49.5 |
| CC(C)(C)C1=CC(=O)C=CC1=O | 8.46 | 9.82 | 11.5 | 13.4 | 20.3 | 17.6 | 0.952 | 0.904 | 0.867 | 0.435 | 0.32 | 0.124 |  |  |  |
| O=C1O[C@H]2[C@@H]3OC(=O)c4cc(O)c(O)c(O)c4-c4c(O)c(O)c5oc(=O)c6c(c(O)c(O)c7oc(=O)c4c5c76)-c4c(cc(O)c(O)c4O)C(=O)OC[C@H]3OC(O)[C@@H]2OC(=O)c2cc(O)c(O)c(O)c2-c2c1cc(O)c(O)c2O (some centres undefined) | 5.43 | 7.35 | 6.54 | 7.71 | 7.7 | 12.5 | 1.01 | 1 | 1.04 | 1.02 | 0.968 | 0.808 | 47.1 | 42.3 | 38.4 |
| COC1=C(OC)C(=O)c2ccccc2C1=O | 7.97 | 8.63 | 10.7 | 18.9 | 21.2 | 24.7 | 0.99 | 0.895 | 0.81 | 0.489 | 0.46 | 0.149 |  |  |  |
| CCN(CC)CCCC(C)Nc1ccnc2cc(Cl)ccc12 (centres undefined) | 4.84 | 5.94 | 4.8 | 4.43 | 4.73 | 6.72 | 1.2 | 1.12 | 1.09 | 1.19 | 1.08 | 1.09 |  |  |  |
| CO[C@@H]1[C@H](N(C)C(=O)c2ccccc2)C[C@H]2O[C@]1(C)n1c3ccccc3c3c4c(c5c6ccccc6n2c5c31)C(=O)NC4 | 13.9 | 15.2 | 19.8 | 22.9 | 23.7 | 24.4 | 1.02 | 0.757 | 0.456 | 0.362 | 0.347 | 0.354 |  |  |  |
| O=C1c2ccccc2[Se](=O)N1c1ccccc1 (centres undefined) | 5.57 | 10.4 | 15.8 | 17 | 15.8 | 13.8 | 0.985 | 0.943 | 0.991 | 0.954 | 0.805 | 0.111 | 31.5 | 18.8 | 18.2 |
| CC(C)C[C@H](NC(=O)[C@H](CCc1ccccc1)NC(=O)CN1CCOCC1)C(=O)N[C@@H](Cc1ccccc1)C(=O)N[C@@H](CC(C)C)C(=O)[C@@]1(C)CO1 | 30.8 | 31.9 | 32.5 | 31.5 | 28.8 | 29.7 | 0.149 | 0.136 | 0.125 | 0.141 | 0.143 | 0.149 | 18.4 | 17.5 | 16.1 |
| O=NN(CCCl)C(=O)NCCCl | 4.49 | 4.2 | 5.44 | 4.8 | 6.45 | 8.52 | 1.01 | 0.934 | 0.932 | 0.946 | 0.929 | 0.856 | 44.8 | 47.8 | 42.3 |
| O=C(Nc1ccc([N+](=O)[O-])cc1Cl)c1cc(Cl)ccc1O | 5.54 | 8.61 | 10.3 | 16 | 17.7 | 14.8 | 1.13 | 1.05 | 1.06 | 0.922 | 0.808 | 0.753 |  |  |  |
| C[C@]12O[C@H](C[C@]1(O)CO)n1c3ccccc3c3c4c(c5c6ccccc6n2c5c31)CNC4=O | 20.6 | 21.4 | 22.3 | 23.1 | 23.1 | 22.8 | 0.654 | 0.525 | 0.521 | 0.516 | 0.453 | 0.138 | 25.9 | 23.6 | 23.8 |
| C[C@H]1O[C@@H](O[C@H]2CC[C@@]3(C)[C@@H](CC[C@]4(C)[C@@H]3C=C[C@]35OC[C@@]6(CCC(C)(C)C[C@H]63)[C@@H](O)C[C@]54C)[C@]2(C)CO)[C@H](O)[C@@H](O[C@@H]2O[C@H](CO)[C@@H](O)[C@H](O)[C@H]2O)[C@H]1O | 5.15 | 6.79 | 10.6 | 9.69 | 27.5 | 29.4 | 0.96 | 0.765 | 0.155 | 0.3 | 0.0734 | 0.0918 | 35.7 | 16.7 | 15.5 |
| O=c1c2ccccc2[se]n1-c1ccccc1 | 4.12 | 5.85 | 11.4 | 12.8 | 12.8 | 18 | 0.989 | 0.995 | 0.973 | 0.98 | 0.521 | 0.312 | 49.5 | 33.9 | 22.3 |
| C#CC[C@H](c1nc2cc(Cl)ccc2c(=O)n1Nc1ccccc1)N(CCCN)C(=O)c1cccc(Cl)c1F | 4.72 | 4.61 | 4.15 | 10.3 | 12.9 | 26.1 | 0.999 | 0.984 | 0.903 | 0.401 | 0.198 | 0.0211 | 26.8 | 13.2 | 10.4 |
| Cc1ccc(C(=O)N(CCCN)[C@@H](c2oc3cc(Cl)ccc3c(=O)c2Cc2ccccc2)C(C)C)cc1.Cl | 13.7 | 13 | 14 | 13.6 | 25.2 | 22 | 0.217 | 0.248 | 0.234 | 0.222 | 0.0425 | 0.029 | 20.2 | 15.1 | 11.9 |
| O.O=P1(N(CCCl)CCCl)NCCCO1 (centres undefined) | 3.69 | 3.83 | 3.34 | 3.43 | 4.46 | 9.23 | 0.967 | 0.999 | 0.965 | 0.985 | 0.993 | 0.941 | 43.1 | 41.1 | 44.2 |
| Oc1ccc(/C=C\c2cc(O)cc(O)c2)cc1 |  |  |  |  |  |  |  |  |  |  |  |  | 42.1 | 46.9 | 39.8 |
| CN(C)/N=N/c1nc[nH]c1C(N)=O | 4.78 | 4.12 | 4.94 | 4.77 | 3.79 | 4.2 | 1 | 0.996 | 0.98 | 0.966 | 1.02 | 1.02 | 43.6 | 42.3 | 45.2 |
